Here are results for 58 compounds from patent US11612604B2, “Methods of treating cancer with PLK4 inhibitors” (LUDWIG INSTITUTE FOR CANCER RESEARCH LTD, priority 2017, dated 2023).

The target of this experiment is T1, PLK4 (Homo sapiens, UniProt O00444).
T1 sequence (O00444 1-970): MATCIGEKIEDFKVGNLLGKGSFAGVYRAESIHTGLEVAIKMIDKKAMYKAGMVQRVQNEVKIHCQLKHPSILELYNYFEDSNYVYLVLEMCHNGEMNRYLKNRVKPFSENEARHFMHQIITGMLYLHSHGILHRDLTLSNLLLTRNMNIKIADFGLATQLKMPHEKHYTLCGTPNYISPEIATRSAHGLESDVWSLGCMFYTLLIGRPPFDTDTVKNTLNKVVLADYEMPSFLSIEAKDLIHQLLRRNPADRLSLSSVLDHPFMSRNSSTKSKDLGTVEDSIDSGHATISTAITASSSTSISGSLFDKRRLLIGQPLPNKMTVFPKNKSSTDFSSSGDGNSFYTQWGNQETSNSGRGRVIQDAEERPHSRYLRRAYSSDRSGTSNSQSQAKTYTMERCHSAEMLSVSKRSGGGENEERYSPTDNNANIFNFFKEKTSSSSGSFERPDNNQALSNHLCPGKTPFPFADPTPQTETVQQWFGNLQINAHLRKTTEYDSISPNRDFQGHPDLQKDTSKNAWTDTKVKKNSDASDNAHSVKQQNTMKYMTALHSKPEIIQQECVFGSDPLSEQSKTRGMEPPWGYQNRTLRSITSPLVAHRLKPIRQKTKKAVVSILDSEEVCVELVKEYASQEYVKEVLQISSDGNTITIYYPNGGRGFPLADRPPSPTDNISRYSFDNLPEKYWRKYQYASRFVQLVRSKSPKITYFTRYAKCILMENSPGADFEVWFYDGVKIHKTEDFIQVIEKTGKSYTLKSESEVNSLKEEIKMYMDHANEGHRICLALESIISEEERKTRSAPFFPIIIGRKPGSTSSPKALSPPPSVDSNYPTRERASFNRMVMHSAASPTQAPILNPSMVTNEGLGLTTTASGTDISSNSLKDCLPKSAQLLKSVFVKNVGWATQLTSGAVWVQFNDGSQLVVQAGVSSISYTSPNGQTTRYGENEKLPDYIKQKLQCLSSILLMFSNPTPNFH
Briefly: Activity (IC50) of the Table 1 compounds as PLK4 inhibitors. The conditions noted are these: Table 1, IC50 class. Type of experiment: biochemical.
Take `CCN(C)c1nc(Sc2ccc(NC(=O)C3CC3)cc2)nc(Nc2cc(C)[nH]n2)c1C`: the IC50 was below 100 nM.

Consider `CCN(CC)c1nc(Sc2ccc(NC(=O)C3CC3)cc2)nc(Nc2cc(C)[nH]n2)c1C`, for which the IC50 is below 100 nM.

With `Cc1cc(Nc2nc(Sc3ccc(NC(=O)C4CC4)cc3)nc(Cl)c2C)n[nH]1`, the IC50 was below 100 nM.

Turning to `Cc1cc(Nc2nc(Sc3ccc(NC(=O)C4CC4)cc3)nc(N(C)CCN(C)C)c2C)n[nH]1`, the IC50 was below 100 nM.

`Cc1cc(Nc2nc(Sc3ccc(NC(=O)C4CC4)cc3)nc(NCCN(C)C)c2C)n[nH]1` returned an IC50 below 100 nM.

For the compound `CNCCN(C)c1nc(Sc2ccc(NC(=O)C3CC3)cc2)nc(Nc2cc(C)[nH]n2)c1C`, the IC50 was below 100 nM.

Turning to `COc1c(Nc2cc(C)[nH]n2)nc(Sc2ccc(NC(C)=O)cc2)nc1N(C)C(C)C`, the IC50 was below 100 nM.

Consider `CC(=O)Nc1ccc(Sc2nc(Nc3cc(C)[nH]n3)c(C)c(N3CCCCC3C)n2)cc1` (stereo not shown), for which the IC50 was below 100 nM.

With `CCN1CCN(c2nc(Sc3ccc(NC(C)=O)cc3)nc(Nc3cc(C)[nH]n3)c2C)CC1`, the IC50 was below 100 nM.

In turn, `COCC(=O)N1CCN(c2nc(Sc3ccc(NC(C)=O)cc3)nc(Nc3cc(C)[nH]n3)c2OC)CC1` displayed an IC50 below 100 nM.

Turning to `COc1c(Nc2cc(C)[nH]n2)nc(Sc2ccc(NC(C)=O)cc2)nc1N1CCC(F)(F)CC1`, the IC50 is below 100 nM.

`COc1c(Nc2cc(C)[nH]n2)nc(Sc2ccc(NC(C)=O)cc2)nc1N1CCC(F)CC1`: the IC50 was below 100 nM.

In the case of `COc1c(Nc2cc(C)[nH]n2)nc(Sc2ccc(NC(C)=O)cc2)nc1N1CCC(O)CC1`, the IC50 is below 100 nM.

For `COc1c(Nc2cc(C)[nH]n2)nc(Sc2ccc(NC(C)=O)cc2)nc1N1CC=CCC1`, the IC50 was below 100 nM.

`COc1c(Nc2cc(C)[nH]n2)nc(Sc2ccc(NC(C)=O)cc2)nc1N1CC=C(F)CC1` yielded an IC50 below 100 nM.

`COc1c(Nc2cc(C)[nH]n2)nc(Sc2ccc(NC(C)=O)cc2)nc1N1CCC(C(C)=O)CC1` came in with an IC50 below 100 nM.

Compound `COc1c(Nc2cc(C)[nH]n2)nc(Sc2ccc(NC(C)=O)cc2)nc1N1CCC(N)CC1` yielded an IC50 below 100 nM.

As to `COc1c(Nc2cc(C)[nH]n2)nc(Sc2ccc(NC(C)=O)cc2)nc1N1CCC(N(C)C)CC1`, the IC50 is below 100 nM.

Compound `CC(=O)Nc1ccc(Sc2nc(Nc3cc(C)[nH]n3)c(C)c(N3CCC(CCN(C)C)CC3)n2)cc1` displayed an IC50 below 100 nM.

With `CCN1CCN(c2nc(Sc3ccc(NC(C)=O)cc3)nc(Nc3cc(C)[nH]n3)c2OC)CC1`, the IC50 is below 100 nM.

`COc1c(Nc2cc(C)[nH]n2)nc(Sc2ccc(NC(C)=O)cc2)nc1N1CCN(C(=O)C(C)C)CC1` yielded an IC50 below 100 nM.

Take `CCC(=O)N1CCN(c2nc(Sc3ccc(NC(C)=O)cc3)nc(Nc3cc(C)[nH]n3)c2OC)CC1`: the IC50 is below 100 nM.

For the compound `COc1c(Nc2cc(C)[nH]n2)nc(Sc2ccc(S(=O)(=O)Cc3ccccc3)cc2)nc1N1CCN(C2CCN(C)CC2)CC1`, the IC50 was below 100 nM.

As to `COc1c(Nc2cc(C)[nH]n2)nc(Sc2ccc(S(=O)(=O)Cc3ccccc3)cc2)nc1N1CCC(N2CCN(C)CC2)CC1`, the IC50 was below 100 nM.

Compound `CSc1nc(Nc2cc(C)[nH]n2)c(C)c(N2CCC(O)CC2)n1` returned an IC50 below 100 nM.

`CSc1nc(Nc2cc(C)[nH]n2)c(C)c(N2CCOCC2)n1` displayed an IC50 below 100 nM.

On to `CC(=O)Nc1ccc(Sc2nc(Nc3cc(C)[nH]n3)c(C)c(N3CCN(C(C)C)CC3)n2)cc1`, for which the IC50 is below 100 nM.

`CC(=O)Nc1ccc(Sc2nc(Nc3cc(C)[nH]n3)c(C)c(N3CCN(C(=O)C(C)C)CC3)n2)cc1` gave a 50% inhibitory concentration (IC50) below 100 nM.

`CNCC(=O)N1CCN(c2nc(Sc3ccc(NC(C)=O)cc3)nc(Nc3cc(C)[nH]n3)c2OC)CC1`: the IC50 was below 100 nM.

With `COc1c(Nc2cc(C)[nH]n2)nc(Sc2ccc(NC(C)=O)cc2)nc1N1CCN(C(=O)CN(C)C)CC1`, the IC50 was below 100 nM.

For the compound `CNC1CCN(c2nc(Sc3ccc(NC(C)=O)cc3)nc(Nc3cc(C)[nH]n3)c2C)CC1`, the concentration for half-maximal inhibition (IC50) was below 100 nM.

`CC(=O)Nc1ccc(Sc2nc(Nc3cc(C)[nH]n3)c(C)c(N3CCC(C(C)=O)CC3)n2)cc1` came in with an IC50 below 100 nM.

`COc1c(Nc2cc(C)[nH]n2)nc(Sc2ccc(NC(C)=O)cc2)nc1N1CCN(C(C)C)CC1` registered an IC50 below 100 nM.

For the compound `CNCC(=O)C1CCN(c2nc(Sc3ccc(NC(C)=O)cc3)nc(Nc3cc(C)[nH]n3)c2OC)CC1`, the IC50 was below 100 nM.

Consider `Cc1cc(Nc2nc(Sc3ccccc3)nc(N(C)C)c2C)n[nH]1`, for which the IC50 is below 100 nM.

In turn, `CNC(=O)Nc1ccc(Sc2nc(Nc3cc(C)[nH]n3)c(C)c(N3CCC(O)CC3)n2)cc1` gave an IC50 below 100 nM.

`CNC(=O)Nc1ccc(Sc2nc(Nc3cc(C)[nH]n3)c(C)c(N3CCOCC3)n2)cc1` had an IC50 below 100 nM.

In turn, `Cc1cc(Nc2nc(Sc3ccccc3)nc(N3CCC(O)CC3)c2C)n[nH]1` displayed an IC50 below 100 nM.

Consider `COc1c(Nc2cc(C)[nH]n2)nc(Sc2ccc(S(=O)(=O)Cc3ccccc3)cc2)nc1N1CCN(CCN2CCCC2)CC1`, for which the IC50 is below 100 nM.

For the compound `Cc1cc(Nc2nc(Sc3ccccc3)nc(N3CCOCC3)c2C)n[nH]1`, the IC50 was below 100 nM.

`CC(=O)Nc1ccc(Sc2nc(Nc3cc(C)[nH]n3)c(C)c(N3CCC(N)CC3)n2)cc1`: the half-inhibitory concentration (IC50) was below 100 nM.

For `CC(=O)Nc1ccc(Sc2nc(Nc3cc(C)[nH]n3)c(C)c(N3CCC(N(C)C)CC3)n2)cc1`, the IC50 is below 100 nM.

For the compound `CC(=O)Nc1ccc(Sc2nc(Nc3cc(C)[nH]n3)c(C)c(N3CCC(C)(O)CC3)n2)cc1`, the IC50 is below 100 nM.

For `CCN(CC)c1nc(Sc2ccc(NC(C)=O)cc2)nc(Nc2cc(C)[nH]n2)c1C`, the IC50 was below 100 nM.

The compound `Cc1cc(Nc2nc(Sc3ccc(N)cc3)nc(N3CCC(O)CC3)c2C)n[nH]1` had a concentration for half-maximal inhibition (IC50) below 100 nM.

On to `Cc1cc(Nc2nc(Sc3ccc(N)cc3)nc(N3CCOCC3)c2C)n[nH]1`, for which the IC50 was below 100 nM.

Compound `COCC(=O)N1CCN(c2nc(Sc3ccccc3)nc(Nc3cc(C)[nH]n3)c2C)CC1` gave an IC50 below 100 nM.

In turn, `CSc1nc(Nc2cc(C)[nH]n2)c(C)c(N(C)C(C)C)n1` displayed an IC50 below 100 nM.

As for `COc1c(Nc2cc(C)[nH]n2)nc(Sc2ccc(NC(C)=O)cc2)nc1N1CCC(CCN(C)C)CC1`, the IC50 is below 100 nM.

`CNC(=O)Nc1ccc(Sc2nc(Nc3cc(C)[nH]n3)c(C)c(N(C)C(C)C)n2)cc1`: the IC50 was below 100 nM.

The compound `CNC(=O)Nc1ccc(Sc2nc(Nc3cc(C)[nH]n3)c(C)c(N3CCN(C(=O)COC)CC3)n2)cc1` came in with an IC50 below 100 nM.

`Cc1cc(Nc2nc(Sc3ccc(N)cc3)nc(N(C)C(C)C)c2C)n[nH]1` registered an IC50 below 100 nM.

The compound `COCC(=O)N1CCN(c2nc(Sc3ccc(N)cc3)nc(Nc3cc(C)[nH]n3)c2C)CC1` showed an IC50 below 100 nM.

In turn, `Cc1ccc(Sc2nc(Nc3cc(C)[nH]n3)c(C)c(N3CCC(O)CC3)n2)cc1` had an IC50 below 100 nM.

`Cc1ccc(Sc2nc(Nc3cc(C)[nH]n3)c(C)c(N3CCOCC3)n2)cc1`: the IC50 was below 100 nM.

For the compound `COCC(=O)N1CCN(c2nc(Sc3ccc(C)cc3)nc(Nc3cc(C)[nH]n3)c2C)CC1`, the IC50 is below 100 nM.

`COc1c(Nc2cc(C)[nH]n2)nc(Sc2ccc(S(=O)(=O)Cc3ccccc3)cc2)nc1N1CCN(CCN2CCCCC2)CC1` yielded an IC50 below 100 nM.

As to `COc1c(Nc2cc(C)[nH]n2)nc(Sc2ccc(S(=O)(=O)Cc3ccccc3)cc2)nc1N1CCN(CCN2C(C)CCCC2C)CC1` (stereo not shown), the IC50 was below 100 nM.

By IC50 is commonly meant the concentration that gives 50% inhibition.
